Active and inactive are the calls of the source. The rule behind the calls is not given here.

Data set [1] concerns Leishmania infantum. Nature of the data set: Antileishmanial activity against Leishmania infantum MON-1 promastigotes infected in BALB/c mouse assessed as reduction in liver parasite load at 104 mg Sbv/kg, ip administered daily for 14 days starting from 28 days post infection measured post last dose by Taqman qRT-PCR analysis relative to control. It is filed as functional, organism-based. Set-up: scale not given: the % may be the effect or the level left. For orientation: Quantitative PCR measures a nucleic acid by following its amplification.

The subject of data set [2] is Leishmania infantum. As to the kind of experiment: Antileishmanial activity against Leishmania infantum MON-1 promastigotes infected in BALB/c mouse assessed as reduction in spleen parasite load at 104 mg Sbv/kg, ip administered daily for 14 days starting from 28 days post infection measured post last dose by Taqman qRT-PCR analysis relative to control. It is filed as functional, organism-based. Set-up: scale not given: the % may be the effect or the level left.

Data set [3] can be described thus: (§1) Cytotoxicity against Swiss mouse BMDM assessed as reduction in cell viability measured after 72 hrs by tryphan blue assay. To be noted: Swiss, BMDM. Type of data set: cell-based.
A short description of data set [4]: (§2) Cytotoxicity against mouse L929 cells assessed as reduction in cell viability measured after 72 hrs by tryphan blue assay. It is filed as cell-based. To be noted: L929 cells.
For data set [5], the system named is Leishmania infantum. Nature of the data set: Antileishmanial activity against Leishmania infantum MON-1 promastigotes assessed as reduction in parasite viability at 100 uM measured after 48 hrs by MTT assay. It is filed as functional, organism-based. (In general: Formazan colour is commonly taken as a measure of viable cells.)
The test system of data set [6] is Leishmania infantum. Nature of the data set: Antileishmanial activity against Leishmania infantum MON-1 intracellular amastigotes infected in Swiss mouse BMDM measured after 48 hrs by Giemsa staining based optical microscopic analysis. It is filed as functional, organism-based.
The nature of data set [7]: Selectivity index, ratio of CC50 for mouse L929 cells to IC50 for Leishmania infantum MON-1 intracellular amastigotes infected in Swiss mouse BMDM. Type of data set: toxicity, cell-based.
Data set [8] in a line: Selectivity index, ratio of CC50 for mouse L929 cells to IC50 for Leishmania donovani MON-2 intracellular amastigotes. It is filed as toxicity, cell-based.
Data set [9] is described as follows: Selectivity index, ratio of CC50 for mouse L929 cells to IC50 for Leishmania major MON-4 intracellular amastigotes. Type of data set: toxicity, cell-based.
A short description of data set [10]: Selectivity index, ratio of CC50 for mouse L929 cells to IC50 for Leishmania tropica MON-102 intracellular amastigotes. It is filed as toxicity, cell-based.
In another data set the test system is Leishmania major. Nature of the data set: Antileishmanial activity against Leishmania major MON-4 intracellular amastigotes. Type of data set: functional, organism-based.
The subject of the next data set is Leishmania tropica. Nature of the data set: Antileishmanial activity against Leishmania tropica MON-102 intracellular amastigotes. It is filed as functional, organism-based.
The next data set concerns Leishmania donovani. Nature of the data set: Antileishmanial activity against Leishmania donovani MON-2 intracellular amastigotes. Type of data set: functional, organism-based.
The subject of a further data set is L929. Described as §2. Type of data set: cell-based. To be noted: l929, 72 h.
Another data set has as its system BMDM. The data set is described as §1. Type of data set: cell-based. To be noted: bmdm, 72 h.
Data set [11] in a line: Toxicity in BALB/c mouse infected with Leishmania infantum MON-1 promastigotes assessed as change in AST level at 104 mg Sbv/kg, ip administered daily for 14 days starting from 28 days post infection using PLGA nanoparticle incorporated compound. It is filed as organism-based. To be noted: in vivo.
The mark [12] stands for this setting: Leishmania infantum, MON-1, BMDM, 48 h.

In the case of “MEGLUMINE ANTIMONATE [listing 1 of 2 here]”, the Activity in the data set on Leishmania infantum [1] stood at 83%; in the data set on Leishmania infantum [2], 33%.
Turning to `O=C(CCCCCCC(=O)Nc1ccccc1)NO` [VORINOSTAT], in [3], the CC50 at 72 h lay in the range of 5 to 20 µM.
`COc1ccc(C(ONC(=O)CCCCCCC(=O)Nc2ccccc2)(c2ccccc2)c2ccc(OC)cc2)cc1`: the CC50 at 72 h in data set [4] and in [3] was less than 1 µM in each case.
For the compound `O=C(CCCCCCC(=O)Nc1ccccc1)NOCc1ccccc1`, the outcome in the data set with Leishmania infantum [5] was inactive. The CC50 at 72 h in data set [4] and in data set [3] was greater than 100 µM throughout. Further, the IC50 in the data set with Leishmania infantum [6] (setting [12]) worked out at 0.44 µM.
Turning to `Cc1ccc(C(ONC(=O)CCCCCCC(=O)Nc2ccccc2)(c2ccccc2)c2ccccc2)cc1`, the CC50 at 72 h in data set [3] is less than 100 µM. The compound also had an IC50 in the data set with Leishmania infantum [6] (setting [12]) of 69.1 µM.
For `O=C(CCCCCCN1C(=O)c2ccc(C#Cc3ccccc3)cc2S1(=O)=O)NOC(c1ccccc1)(c1ccccc1)c1ccccc1`, in that order: greater than 100 µM and 3.67 µM.
With “MEGLUMINE ANTIMONATE [listing 2 of 2 here]”, the “Ratio CC50/IC50” value is given as 2 in data set [7], 3 in data set [8], 3 in data set [9] and 2 in data set [10]. Further, the IC50 in the data set with Leishmania major was found to be 101 µM; in the data set on Leishmania tropica, 123 µM; in the data set on Leishmania donovani it was 96.4 µM; in the data set on Leishmania infantum [6] it was 144 µM. Further, the values for the CC50 in the data set on L929 and with BMDM were 273 µM and 200 to 500 µM, respectively. Besides, the Activity result in data set [11] is on record as “Toxic”.
For the compound `N=C(N)c1ccc(OCCCCCOc2ccc(C(=N)N)cc2)cc1`, the selectivity ratio in data set [7] (read-out: Ratio CC50/IC50) stood at 4; in data set [8] (read-out: Ratio CC50/IC50), 7; in data set [9] (read-out: Ratio CC50/IC50), 6; in data set [10] (read-out: Ratio CC50/IC50) it was 10. The IC50 in the data set on Leishmania major (Leishmania major, MON-4) came to 0.96 µM; in the data set on Leishmania tropica (Leishmania tropica, MON-102), 0.62 µM; in the data set on Leishmania donovani (Leishmania donovani, MON-2), 0.88 µM; with Leishmania infantum [6] (setting [12]), 1.5 µM. Moreover, the CC50 at 72 h in data set [3] is 5 to 20 µM.
Consider `O=C(CCCCCCC(=O)Nc1ccccc1)NOC(c1ccccc1)(c1ccccc1)c1ccccc1Cl`, for which the CC50 at 72 h in data set [3] was greater than 100 µM. In the data set with Leishmania infantum [6] (setting [12]), this compound yielded an IC50 of 74.9 µM.
On to `CCCCc1ccc(C(=O)NCC(=O)NOC(c2ccccc2)(c2ccccc2)c2ccccc2)cc1`, for which the outcome in the data set with Leishmania infantum [5] was inactive. Further, the CC50 at 72 h in data set [4] and in [3] was greater than 100 µM in each case. Further, the IC50 in the data set with Leishmania infantum [6] (setting [12]) was 1.05 µM.

By CC50 is commonly meant the concentration giving 50% cytotoxicity. Usually IC50 stands for the point on the concentration scale where inhibition reaches its midpoint.
